Laboratory results published in patent US10960010B2, “Pharmaceutical compositions for sustained or delayed release” (INTRA-CELLULAR THERAPIES, INC., priority 2013, dated 2021).
“Also recorded” adds a separate entry of the source.

System: patients with schizophrenia
Test: Randomized, double-blind, placebo-controlled in-patient trial, 4-week treatment, PANSS
Assay type: in vivo, human
Description: For purposes of this example, Compound A refers to the compound of Formula I wherein X is —N(CH3)— and Y is —C(O)—; tosylate salt unless otherwise indicated. A randomized, double-blind, placebo-controlled, in-patient trial is performed. Four treatment arms, 4-week treatment duration, QAM dosing are performed as follows: 60 mg of Compound A; 120 mg of Compound A; positive control (4 mg Risperidone); and placebo. The primary outcome is measured by the change from baseline on Positive and Negative Syndrome Scale (PANSS) Total Score at Day 28. Secondary measures explore key differentiating features.
60 mg Compound A Treatment Arm receives 60 mg of Compound A once daily for 28 days. 120 mg Compound A Treatment Arm receives 60 mg Compound A on Study Day 1 followed by 120 mg Compound A once daily for 27 days. Risperidone Treatment Arm receives 2 mg risperidone on Study Day 1 followed by 4 mg risperidone once daily for 27 days. Placebo Treatment Arm receives placebo once daily for 28 days. All doses are administered in the morning with breakfast.
Key inclusion criteria: Clinical diagnosis of schizophrenia according to DSM-IV-TR is confirmed by modified SCID-CT. Screening Brief Psychiatric […] Scale (BPRS) score of 40 or greater (18-items scored 1-7 each). Minimum score of 4 or higher on at least two of the following positive items: suspiciousness, conceptual disorganization, hallucinatory behavior, unusual thought content. Current exacerbated episode lasts no longer than 4 weeks. Sufficient history and/or independent reporter must verify that current state is an exacerbated state for the individual. Prior response to antipsychotic therapy within the last 5 years, defined as clinically significant and documented decrease in delusions and/or hallucinations during a documented exacerbated episode (and at least 3 months prior exposure to antipsychotic therapy).
The trial has a high subject completion rate (74%) compared to an average of 62% completion rate in other 4-week antipsychotic trials. 19% discontinues during the study treatment period (during Day 1-28). 7% completes study treatment through Day 28, but are lost to follow up.

[1] = 60 mg, sub-group of patients with depression at baseline

Row | SMILES | Prosocial PANSS Factor change from baseline compared to placebo (60 mg) | general psychopathology subscale of the PANSS (60 mg) | items on the negative symptom and general psychopathology subscales consistent with improved social function (60 mg) | positive symptom subscale of the PANSS (60 mg) | Effect Size (Total PANSS) (60 mg Compound A) | LS Mean Difference from Placebo (Total PANSS, Day 28) (60 mg Compound A) | LS Mean Change from Baseline on Day 28 Total PANSS (±SE) using MMRM/ITT (60 mg Compound A (tosylate) once daily in the morning, 28 days, N = 76) | PANSS total score, result in words (60 mg once daily in the morning, after 28 days of treatment) | hyperprolactinemia, EPS/akathisia, weight gain, cardiovascular safety (60 mg once daily, 28 days) | negative symptoms (PANSS Negative Symptom Sub-Scale) [1] | total PANSS [1] | negative symptoms (PANSS Negative Symptom Sub-Scale) (60 mg, subgroup of patients with prominent negative symptoms at baseline) | depression as measured by the CDSS (60 mg, subgroup with CDSS score >6 at baseline) | Effect Size (Total PANSS) (120 mg Compound A) | LS Mean Difference from Placebo (Total PANSS, Day 28) (120 mg Compound A) | LS Mean Change from Baseline on Day 28 Total PANSS (±SE) using MMRM/ITT (120 mg Compound A (60 mg on Day 1, then 120 mg once daily 27 days), N = 80) | Effect Size (Total PANSS) (4 mg Risperidone) | LS Mean Difference from Placebo (Total PANSS, Day 28) (4 mg Risperidone) | LS Mean Change from Baseline on Day 28 Total PANSS (±SE) using MMRM/ITT (4 mg Risperidone (2 mg on Day 1, then 4 mg once daily 27 days), N = 75) | total PANSS and negative symptoms compared with the Compound of Formula I (risperidone arm, sub-group of patients with depression at baseline)
1 | CN1CCN2c3c(cccc31)[C@@H]1CN(CCCC(=O)c3ccc(F)cc3)CC[C@@H]12 [Compound A] | significantly improve | statistically significantly improves | improves certain items | statistically significantly improves | 0.4 | −5.8 | −13.2 ± 1.7 | demonstrates antipsychotic efficacy; also recorded: statistically significant and clinically meaningful decrease | does not cause hyperprolactinemia, EPS/akathisia, weight gain or cardiovascular safety issues | robustly improves | robustly improves | improves negative symptoms qualitatively | significantly reduces depression | 0.1 | −0.9 | −8.3 ± 1.7 | – | – | – | –
2 | Cc1nc2n(c(=O)c1CCN1CCC(c3noc4cc(F)ccc34)CC1)CCCC2 [Risperidone, reference compound] | – | – | – | – | – | – | – | – | – | – | – | – | – | – | – | – | 0.4 | −6.0 | −13.4 ± 1.7 | less effective
